According to patent publication US20260209214A1, “LSD1 MODULATORS” (RECURSION PHARMACEUTICALS, INC., priority 2022, published 2026):
Structures can show the parent of a compound that is named as a salt.

Each compound was assayed against Recombinant human LSD1 (Homo sapiens, UniProt O60341) (assay: LSD1 inhibition assay (HTRF LSD1 Histone H3K4 mono-demethylation assay, me1->me0)). Settings: 20 nM recombinant human LSD1, 95 nM H3K4(me1) biotinylated peptide, 15 min preincubation, 60 min at 25° C., read-out: LSD1 inhibition IC50 (nM range).
Type: biochemical
Method in brief: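 HTRF demethylation (me1->me0) read-out: streptavidin-XL665 and anti-H3K4me0 cryptate added after reaction, ratio measured after 90 min dark. Reaction: 95 nM H3K4me1 biotin-peptide, 20 nM LSD1 (15-min compound pre-incubation), 60 min, 25 °C, buffer pH 8.5 plus FAD and DTT; 4-parameter logistic IC50.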

Compound	IC50
N#Cc1ccc(-c2cc(CC3CNCCO3)ccc2N2CCC(O)(C(F)(F)F)CC2)cc1F (centres unmarked) [Example 151, 3-fluoro-2′-[4-hydroxy-4-(trifluoromethyl)piperidin-1-yl]-5′-[(morpholin-2-yl)methyl]-[1,1′-biphenyl]-4-]	100 to 1000 nM
COCC1(O)CCCN(c2ccc(CC3CNCCO3)cc2-c2ccc(C#N)c(F)c2)CC1 (centres unmarked) [Example 152, 3-fluoro-2′-[4-hydroxy-4-(methoxymethyl)azepan-1-yl]-5′-[(morpholin-2-yl)methyl]-[1,1′-biphenyl]-4-carbonitrile]	100 to 1000 nM
Cn1cc(-c2c(CC3CNCCO3)cccc2-c2ccc(C#N)c(F)c2)cn1 (centres unmarked) [Example 153, 3-fluoro-2′-(1-methyl-1H-pyrazol-4-yl)-3′-[(morpholin-2-yl)methyl]-[1,1′-biphenyl]-4-carbonitrile]	25 to 100 nM
N#Cc1ccc(-c2cccc(COC3CCNC3)c2-c2cnco2)cc1F (centres unmarked) [Example 154, 3-fluoro-2′-(1,3-oxazol-5-yl)-3′-[(pyrrolidin-3-yloxy)methyl]-[1,1′-biphenyl]-4-carbonitrile]	10 to 25 nM
CC1(O)CCN(c2ccc(CC3CNCCO3)c(F)c2-c2ccc(C#N)c(F)c2)CC1 (centres unmarked) [Example 155, 2′,3-difluoro-6′-(4-hydroxy-4-methylpiperidin-1-yl)-3′-[(morpholin-2-yl)methyl]-[1,1′-biphenyl]-4-carbonitrile]	100 to 1000 nM
Cn1nccc1-c1c(CC2CNCCO2)cccc1-c1ccc(C#N)c(F)c1 (centres unmarked) [Example 156, 3-fluoro-2′-(1-methyl-1H-pyrazol-5-yl)-3′-[(morpholin-2-yl)methyl]-[1,1′-biphenyl]-4-carbonitrile]	25 to 100 nM
N#Cc1ccc(-c2cc(CC3CNCCO3)ccc2-c2ccn3cnnc3c2)cc1F (centres unmarked) [Example 157, 3-fluoro-5′-[(morpholin-2-yl)methyl]-2′-{[1,2,4]triazolo[4,3-a]pyridin-7-yl}-[1,1′-biphenyl]-4-carbonitrile]	> 1000 nM
N#Cc1ccc(-c2cc(CC3CNCCO3)ccc2C2CCOCC2)cc1F (centres unmarked) [Example 158, 3-fluoro-5′-[(morpholin-2-yl)methyl]-2′-(oxan-4-yl)-[1,1′-biphenyl]-4-carbonitrile]	> 1000 nM
N#Cc1ccc(-c2cccc(CC3CNCCO3)c2N2CC(O)C2)cc1F (centres unmarked) [Example 159, 3-fluoro-2′-(3-hydroxyazetidin-1-yl)-3′-[(morpholin-2-yl)methyl]-[1,1′-biphenyl]-4-carbonitrile]	> 1000 nM
N#Cc1ccc(-c2cc(CC3CN4CCC4CO3)ccc2N2CCC2)cc1F (centres unmarked) [Example 160, 2′-(azetidin-1-yl)-3-fluoro-5′-({4-oxa-1-azabicyclo[4.2.0]octan-3-yl}methyl)-[1,1′-biphenyl]-4-carbonitrile]	> 1000 nM
CCc1cc(CC2CNCCO2)cc(-c2ccc(C#N)cc2)c1Cl (centres unmarked) [Example 161, 2′-chloro-3′-ethyl-5′-[(morpholin-2-yl)methyl]-[1,1′-biphenyl]-4-carbonitrile]	> 1000 nM
N#Cc1ccc(-c2cc(CC3CNCCO3)ccc2C2CCCC2)cc1 (centres unmarked) [Example 162, 2′-cyclopentyl-5′-[(morpholin-2-yl)methyl]-[1,1′-biphenyl]-4-carbonitrile]	> 1000 nM
CC(C)N1CCOC(Cc2ccc(N3CCC3)c(-c3ccc(C#N)c(F)c3)c2)C1 (centres unmarked) [Example 163, 2′-(azetidin-1-yl)-3-fluoro-5′-{[4-(propan-2-yl)morpholin-2-yl]methyl}-[1,1′-biphenyl]-4-carbonitrile]	100 to 1000 nM
CCN1CCN(c2ccc(CC3CNCCO3)cc2-c2ccc(C#N)c(F)c2)CC1 (centres unmarked) [Example 164, 2′-(4-ethylpiperazin-1-yl)-3-fluoro-5′-[(morpholin-2-yl)methyl]-[1,1′-biphenyl]-4-carbonitrile]	100 to 1000 nM
CC1(O)CC2(CN(c3ccc(CC4CNCCO4)cc3-c3ccc(C#N)c(F)c3)C2)C1 (centres unmarked) [Example 165, 3-fluoro-2′-{6-hydroxy-6-methyl-2-azaspiro[3.3]heptan-2-yl}-5′-[(morpholin-2-yl)methyl]-[1,1′-biphenyl]-4-carbonitrile]	100 to 1000 nM
CN1CCC(O)(Cc2cccc(-c3ccc(C#N)c(F)c3)c2C2CC2)CC1 [Example 166, 2′-cyclopropyl-3-fluoro-3′-[(4-hydroxy-1-methylpiperidin-4-yl)methyl]-[1,1′-biphenyl]-4-carbonitrile]	100 to 1000 nM
N#Cc1ccc(-c2cc(CC3CNCCO3)ccc2N2CCOCC2)cc1F (centres unmarked) [Example 167, 3-fluoro-5′-[(morpholin-2-yl)methyl]-2′-(morpholin-4-yl)-[1,1′-biphenyl]-4-carbonitrile]	> 1000 nM
N#Cc1ccc(-c2cc(C3CNCCO3)ccc2N2CCCCC2)cc1F (centres unmarked) [Example 168, 3-fluoro-5′-(morpholin-2-yl)-2′-(piperidin-1-yl)-[1,1′-biphenyl]-4-carbonitrile]	100 to 1000 nM

Compound	IC50
N#Cc1ccc(-c2cccc(CN3C[C@]4(N)CC[C@H]3C4)c2-c2ccns2)cc1F [Example 171, 4-[3-[[(1S,4S)-4-amino-2-azabicyclo[2.2.1]heptan-2-yl]methyl]-2-isothiazol-5-yl-phenyl]-2-fluoro-benzonitrile hydrochloride]	10 to 25 nM
N#Cc1ccc(-c2cccc(CN3C[C@]4(N)CC[C@H]3C4)c2N2CCC2)cc1F [Example 172, N[C@@]12CC[C@@H](C1)N(Cc3cccc(c4ccc(C#N)c(F)c4)c3N5CCC5)C2]	10 to 25 nM
N#Cc1ccc(-c2cccc(CN3C[C@]4(N)CC[C@H]3C4)c2-c2ocnc2F)cc1F [Example 174, 3'-{[(1S,4S)-4-amino-2-azabicyclo[2.2.1]heptan-2-yl]methyl}-3-fluoro-2'-(4-fluoro-1,3-oxazol-5-yl)-[1,1'-biphenyl]-4-carbonitrile]	10 to 25 nM
N#Cc1ccc(-c2cccc(CN3C[C@]4(N)CC[C@H]3C4)c2OC(F)F)cc1F [Example 177, 3'-{[(1S,4S)-4-amino-2-azabicyclo[2.2.1]heptan-2-yl]methyl}-2'-(difluoromethoxy)-3-fluoro-[1,1'-biphenyl]-4-carbonitrile]	< 10 nM
N#Cc1ccc(-c2cccc(CN3C[C@]4(N)CC[C@H]3C4)c2C2CC2)cc1 [Example 184, 3'-{[(1S,4S)-4-amino-2-azabicyclo[2.2.1]heptan-2-yl]methyl}-2'-cyclopropyl-[1,1'-biphenyl]-4-carbonitrile]	25 to 100 nM
N#Cc1ccc(-c2ccc(F)c(CN3C[C@]4(N)CC[C@H]3C4)c2-c2ccns2)cc1F [Example 185, 3'-{[(1S,4S)-4-amino-2-azabicyclo[2.2.1]heptan-2-yl]methyl}-3,4'-difluoro-2'-(1,2-thiazol-5-yl)-[1,1'-biphenyl]-4-carbonitrile]	< 10 nM
N#Cc1ccc(-c2cccc(CN3C[C@]4(N)CC[C@H]3C4)c2-c2scnc2Cl)cc1F [Example 188, 3'-{[(1S,4S)-4-amino-2-azabicyclo[2.2.1]heptan-2-yl]methyl}-2'-(4-chloro-1,3-thiazol-5-yl)-3-fluoro-[1,1'-biphenyl]-4-carbonitrile]	10 to 25 nM
N#Cc1ccc(-c2ccc(F)c(CN3C[C@]4(N)CC[C@H]3C4)c2C2CC2)cc1F [Example 189, 3'-{[(1S,4S)-4-amino-2-azabicyclo[2.2.1]heptan-2-yl]methyl}-2'-cyclopropyl-3,4'-difluoro-[1,1'-biphenyl]-4-carbonitrile]	10 to 25 nM
N#Cc1ccc(-c2cccc(CN3[C@@H]4CC[C@H]3[C@@H](N)C4)c2-c2ccns2)cc1F [Example 192, N[C@H]1C[C@H]2CC[C@@H]1N2Cc3cccc(c4ccc(C#N)c(F)c4)c3c5ccns5]	< 10 nM
N#Cc1ccc(-c2cccc(CN3C[C@]4(N)CC[C@H]3C4)c2C2CC2)cc1F [Example 193, 3'-{[(1S,4S)-4-amino-2-azabicyclo[2.2.1]heptan-2-yl]methyl}-2'-cyclopropyl-3-fluoro-[1,1'-biphenyl]-4-carbonitrile]	10 to 25 nM
CN[C@]12CC[C@H](C1)N(Cc1cccc(-c3ccc(C#N)c(F)c3)c1C1CC1)C2 [Example 195, 2'-cyclopropyl-3-fluoro-3'-{[(1R,4R)-4-(methylamino)-2-azabicyclo[2.2.1]heptan-2-yl]methyl}-[1,1'-biphenyl]-4-carbonitrile]	10 to 25 nM
N#Cc1ccc(-c2cccc(CN3C[C@]4(N)CC[C@H]3C4)c2Cl)cc1F [Example 196, 3'-{[(1S,4S)-4-amino-2-azabicyclo[2.2.1]heptan-2-yl]methyl}-2'-chloro-3-fluoro-[1,1'-biphenyl]-4-carbonitrile]	25 to 100 nM
CC1(C)CN(Cc2cccc(-c3ccc(C#N)c(F)c3)c2-c2ccns2)CC1N (centres unmarked) [Example 198, 3'-[(4-amino-3,3-dimethylpyrrolidin-1-yl)methyl]-3-fluoro-2'-(1,2-thiazol-5-yl)-[1,1'-biphenyl]-4-carbonitrile]	10 to 25 nM
N#Cc1ccc(-c2cccc(CN3CCC4CC3CN4)c2C2CC2)cc1F (centres unmarked) [Example 199, 2'-cyclopropyl-3'-({2,6-diazabicyclo[3.2.1]octan-2-yl}methyl)-3-fluoro-[1,1'-biphenyl]-4-carbonitrile]	10 to 25 nM
C[C@]1(N)CCN(Cc2cccc(-c3ccc(C#N)c(F)c3)c2C2CC2)C1 [Example 202, 3'-{[(3S)-3-amino-3-methylpyrrolidin-1-yl]methyl}-2'-cyclopropyl-3-fluoro-[1,1'-biphenyl]-4-carbonitrile]	25 to 100 nM
CC1(N)CCN(Cc2cccc(-c3ccc(C#N)c(F)c3)c2C2CC2)CC1 [Example 205, 3'-[(4-amino-4-methylpiperidin-1-yl)methyl]-2'-cyclopropyl-3-fluoro-[1,1'-biphenyl]-4-carbonitrile]	25 to 100 nM
N#Cc1ccc(-c2ccc(F)c(CN3C[C@]4(N)CC[C@H]3C4)c2Cl)cc1F [Example 208, 3'-{[(1S,4S)-4-amino-2-azabicyclo[2.2.1]heptan-2-yl]methyl}-2'-chloro-3,4'-difluoro-[1,1'-biphenyl]-4-carbonitrile]	25 to 100 nM
